Results: patent publication US20200231912A1, “USE OF STEVIOL GLYCOSIDE IN MALTING” (Corn Products Development, Inc., priority 2017, published 2020)

Test system: two row barley
Assay: Malting trials: overall malt quality against defined specifications
Details: Example 2; inferred from content in compositions A-E and Table 6
Experimental: Cereal grain malting trials were performed according to the methods described herein to compare Control malts # 1, 2 and 3 with Test malts # 1, 2, 3, 4 and 5, where steviol glycosides were added at the following rates: • Test 1: 0.00019 kg per 1 metric ton of unmalted barley; • Test 2: 0.00013 kg per 1 metric ton of unmalted barley; • Test 3: 0.00024 kg per 1 metric ton of unmalted barley; • Test 4: 0.00070 kg per 1 metric ton of unmalted barley; • Test 5: 0.00043 kg per 1 metric ton of unmalted barley; The steviol glycosides were added at the beginning of the germination process, prior to kilning. Table 5 illustrates the weight percent ranges of each steviol glycoside in a mixture of steviol glycosides.
Control malts # 1, 2 and 3 and Test malts # 1, 2, 3, 4 and 5 were prepared as follows. The general process is illustrated in FIG. 10.
Control Malt # 1 was produced according to the steeping process described in FIG. 10, which was performed in flat bottomed steep vessel, adding 400 kg of 100% two row barley having a 10% moisture content to water. The steeping process included three steeping steps, including a steeping step which was conducted for 1:15 hours and followed by a drying step which was aeration at 19-21° C. during 6 hours. The steeping step was repeated two times. When the steeping degree of the cereal grains measured ≥42%, the water was drained off in preparation for germination. Steviol glycosides and/or gibberellic acid were not added during Control Malt # 1 production.
The germinating step of Control Malt # 1 is described in FIG. 10, which occurred in a typical rectangular germination box (e.g., unit type Saladin) for 5.5 days. The ventilation air temperature during the germinating step was 15-18° C. from the first until the third germination day, followed by ventilation air temperature of 11-15° C. from the third until the last germination day, and the moisture content was 43-47%. The malt turning procedures, which provide the mixing for the germinating kernels, were used first after 24 hours of germination and second after 48 hours of germination. Once the germination time achieved the expected value for Control Malt # 1, the kernels were kilned.
The kilning step is then described in FIG. 10 as using a single floor kiln with gas heating. The kernels were heated for 16:30 hours using hot air from 55-70° C., then for 5 hours using hot air at 80° C. […] The malt was cleaned by removing the rootlets using a malt deculming screw, and the cleaned malt was packaged into 25 kilogram bags.

Row | Molecule | impact on stimulation of barley germination | effect on proteolytic enzymes activity and protein breakdown
1 | C=C1C[C@@]23CC[C@H]4[C@@](C)(CCC[C@@]4(C)C(=O)O)[C@@H]2CC[C@]1(O[C@@H]1O[C@H](CO)[C@@H](O)[C@H](O)[C@H]1O[C@@H]1O[C@H](CO)[C@@H](O)[C@H](O)[C@H]1O)C3 [Steviolbioside] | do not seem to play a significant role | 
2 | Rebaudioside C | positive impact | 
3 | Rebaudioside F | seems to impact barley germination at certain content ranges | 
4 | C=C1C[C@@]23CC[C@H]4[C@@](C)(CCC[C@@]4(C)C(=O)O[C@@H]4O[C@H](CO)[C@@H](O)[C@H](O)[C@H]4O)[C@@H]2CC[C@]1(O[C@@H]1O[C@H](CO)[C@@H](O)[C@H](O[C@@H]2O[C@H](CO)[C@@H](O)[C@H](O)[C@H]2O)[C@H]1O[C@@H]1O[C@H](CO)[C@@H](O)[C@H](O)[C@H]1O)C3 [Rebaudioside A] | positive impact | appears to have an effect
5 | C=C1C[C@@]23CC[C@H]4[C@@](C)(CCC[C@@]4(C)C(=O)O[C@@H]4O[C@H](CO)[C@@H](O)[C@H](O)[C@H]4O[C@@H]4O[C@H](CO)[C@@H](O)[C@H](O)[C@H]4O)[C@@H]2CC[C@]1(O[C@@H]1O[C@H](CO)[C@@H](O)[C@H](O[C@@H]2O[C@H](CO)[C@@H](O)[C@H](O)[C@H]2O)[C@H]1O[C@@H]1O[C@H](CO)[C@@H](O)[C@H](O)[C@H]1O)C3 [Rebaudioside D] | do not seem to play a significant role | 
6 | Rebaudioside B | seems to impact barley germination at certain content ranges | 
7 | C=C1C[C@@]23CC[C@H]4[C@@](C)(CCC[C@@]4(C)C(=O)O[C@@H]4O[C@H](CO)[C@@H](O)[C@H](O)[C@H]4O)[C@@H]2CC[C@]1(O[C@@H]1O[C@H](CO)[C@@H](O)[C@H](O)[C@H]1O[C@@H]1O[C@@H](C)[C@H](O)[C@@H](O)[C@H]1O)C3 [Dulcoside A] | negative impact | 
8 | C=C1C[C@@]23CC[C@H]4[C@@](C)(CCC[C@@]4(C)C(=O)O[C@@H]4O[C@H](CO)[C@@H](O)[C@H](O)[C@H]4O)[C@@H]2CC[C@]1(O[C@@H]1O[C@H](CO)[C@@H](O)[C@H](O)[C@H]1O[C@@H]1O[C@H](CO)[C@@H](O)[C@H](O)[C@H]1O)C3 [Stevioside] | do not seem to play a significant role | 
9 | C=C1C[C@@]23CC[C@H]4[C@@](C)(CCC[C@@]4(C)C(=O)O[C@@H]4O[C@H](CO)[C@@H](O)[C@H](O)[C@H]4O)[C@@H]2CC[C@]1(O[C@@H]1O[C@H](CO)[C@@H](O)[C@H](O)[C@H]1O)C3 [Rubusoside] | do not seem to play a significant role | 

Test system: two row barley
Assay: Huzzar rate assay
Type: in vivo
Details: Example 2; 4.5 days germination; % printed
Text: The Huzzar rate assay informs the ratio of cereal kernels in which the acrospires have emerged from end of grains. A range of devices have been used as measuring aids having magnifying lenses and ruled scales with diverging lines that are arranged over the grain with the base and tip at the “0” and “1” lines and then divide the grain length into ¼, ½, ⅔, ¾, 1 and 1+ or overgrown. The results may be expressed as an average value. Typical result for Huzzar rate analysis is maximum 3%.

Row | Molecule | Huzzar rate
10 | C=C1C[C@]23C[C@@]1(O)CC[C@H]2[C@@]12C=C[C@H](O)[C@@](C)(C(=O)O1)[C@H]2[C@@H]3C(=O)O [Control 3, Gibberellic acid] | 5%

Test system: two row barley
Assay: Germination rate assay
Type: in vivo
Details: Example 2; 4.5 days germination; % printed
Experimental: The Germination rate assay informs the percentage of germinated kernels during malting. One hundred barley grains are placed inside each one of four Petri plates containing 4mL of distilled water in a paper filter. The number of germinated kernels is measured after 24, 48 and 72 hours respectively. The germination rate is defined comparing the number of germinated kernels at 24, 48 and 72 h with total number of kernels (400). Typical result for Germination rate analysis is minimum 95%.

Row | Molecule | Germination rate
11 | C=C1C[C@]23C[C@@]1(O)CC[C@H]2[C@@]12C=C[C@H](O)[C@@](C)(C(=O)O1)[C@H]2[C@@H]3C(=O)O [Control 3, Gibberellic acid] | 90%
